Twelve compounds from patent publication US20090048221A1, “Conjugates with Anti-Inflammatory Activity” (priority 2004, published 2009) can be followed below.

Counter-ions that a name gives are not always drawn.

A word on the IC50: it is the concentration needed to halve the response being measured.

The subject of one series is Male Balb/cJ mice. The series is described as follows: Lung neutrophilia induced by bacterial lipopolysaccharide. The series is classed as in vivo. As to conditions: 24 hours after LPS. Here is the method: Male Balb/cJ mice (Iffa Credo, Lyon, France) weighing 25 g were randomly grouped in three groups: test, positive and negative control (10 animals per each group). Vehicle, beclomethasone dipropionate or test substance were applied intranasally (i.n.) to Balb/cJ mice. Thirty minutes later, 60 μl of bacterial lipopolysaccharide (LPS), dissolved in PBS at the concentration of 167 μg/ml, was given i.n. to all groups except the negative control group, which received the same volume of PBS. Animals were sacrificed after 24 hours and bronchoalveolar lavage fluid (BALF) collected for determination of neutrophils and […] and TNF-α concentration. Cytokines were measured using sandwich ELISA (R&D Systems). Statistical analysis was performed using GraphPad prism software, one-way ANOVA Turkey Kramer Multiple comparison test.

For series [1], the system named is Mouse T-cell hybridoma 13. Description: Inhibition of mouse T-cell hybridoma 13 proliferation as a result of apoptosis induction. As to conditions: for IC50: Mus musculus, T-cell, [3H]thymidine incorporation, overnight incubation; for inhibition of T-cell hybridoma 13 proliferation: in the concentrations from 1 μM to 1 nM. The series is classed as cell-based. Here is the method:
Triplicates of test steroid dilution in RPMI medium (Institute of Immunology, Zagreb) with 10% FBS were added to a 96 well plate. […] Then 1 μCi of [^3H]thymidine (Pharmacia, Piscataway, N.J. USA) was added and the mixture was incubated for an additional 3 hours. The cells were harvested by applying a vacuum over GF/C filter (Packard). Onto each well, 30 μl of Microscynt O scintillation liquid (Packard) was added and the incorporated radioactivity was measured on a β-scintillation counter (Packard).

In series [2] the target is T1, human glucocorticoid receptor (Homo sapiens, UniProt P04150).
T1 construct: expressed in transfected cells; host or cells: COS-1 cells, transient transfection with pcDNA3.1 Hygro(+) carrying the cloned cDNA
T1 sequence (P04150 1-777): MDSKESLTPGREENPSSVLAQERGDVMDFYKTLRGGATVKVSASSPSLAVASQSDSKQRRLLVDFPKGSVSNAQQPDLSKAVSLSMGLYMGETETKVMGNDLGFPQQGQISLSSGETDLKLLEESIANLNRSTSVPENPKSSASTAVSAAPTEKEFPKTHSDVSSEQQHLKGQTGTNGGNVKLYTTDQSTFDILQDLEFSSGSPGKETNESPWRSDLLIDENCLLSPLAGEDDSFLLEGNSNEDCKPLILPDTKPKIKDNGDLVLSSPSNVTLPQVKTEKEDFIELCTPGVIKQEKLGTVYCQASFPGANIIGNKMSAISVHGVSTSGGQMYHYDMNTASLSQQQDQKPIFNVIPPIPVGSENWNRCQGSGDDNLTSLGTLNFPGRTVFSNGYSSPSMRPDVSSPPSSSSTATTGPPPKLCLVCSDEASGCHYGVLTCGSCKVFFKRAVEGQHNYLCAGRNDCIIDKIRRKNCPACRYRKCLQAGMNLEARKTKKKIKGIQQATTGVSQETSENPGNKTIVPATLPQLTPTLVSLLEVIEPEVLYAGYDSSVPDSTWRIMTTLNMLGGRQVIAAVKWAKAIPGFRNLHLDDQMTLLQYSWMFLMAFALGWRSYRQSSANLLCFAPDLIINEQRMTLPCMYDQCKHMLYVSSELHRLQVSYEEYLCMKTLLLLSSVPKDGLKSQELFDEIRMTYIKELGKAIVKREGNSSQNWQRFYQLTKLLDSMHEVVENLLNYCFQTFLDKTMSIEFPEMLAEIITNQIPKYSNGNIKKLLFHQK
Description: Assay of binding to human glucocorticoid receptor ([3H]dexamethasone displacement in transfected COS-1 cells). To be noted: 24 nM [3H]dexamethasone, COS-1 cells transfected with human GR alpha. How it is done: The cells were incubated at 37° C. in an atmosphere with 5% CO2 and after 5 hours the same volume of 20% FBS/DMEM was added.

The test system of a further series is Male Balb/C mice. The series is described as follows: Model of lung eosinophilia in mice (OVA sensitised and challenged).
The test system of the next series is Male Sprague-Dawley rats. Description: Croton oil induced ear edema in male Sprague-Dawley rats. The series is classed as in vivo. To be noted: applied topically once, n=8. How it is done:
Test and reference substances, as well as vehicle (acetone), were administered topically to the inner and the outer surface of the right ear of each animal with an automatic pipette, in a volume of 60 μL/ear (30 μL/surface), thirty minutes before the croton oil challenge. Test substances were administered in the doses of 2 or 5 mg/ear/60 μL of acetone. Dexamethasone was administered in the dose of 1 mg/ear/60 μL of acetone. Thirty minutes later, 20% croton oil emulsion in acetone was applied topically to the inner and the outer surface of the right ear of each animal with an automatic pipette, in a volume of 60 μL/ear (30 μL/surface). Five hours after the challenge, animals were euthanized by asphyxiation in 100% CO2 atmosphere. For assessing the auricular edema, 8 mm discs were cut out of left and right auricular pinna and weighed. The degree of edema was calculated by subtracting the weight of 8 mm disc of the untreated ear from that of the treated contralateral ear.

Series [3] relates to interleukin 4, interleukin 5 and interferon γ production. The series is described as follows: Inhibition of interleukin 4, interleukin 5 and interferon γ production by concanavalin-A induced murine splenocytes. In kind it is cell-based, Balb/C mice. To be noted: in concentrations from 1 μM to 1 nM; concanavalin-A stimulated splenocytes, 72 hours. The source says: Splenocytes were isolated from the spleen of Balb/C mice sacrificed by thiopental injection (Pliva, Zagreb, Croatia). Spleens were chopped and mononuclear cells separated on Histopaque 1083 (Sigma Diagnostics, St. Louis, Mo. USA Cat. No 1083-1). Into a 96-well plate, compounds diluted in RPMI medium (Institute of Immunology, Zagreb, Croatia) were pipetted with 10% foetal bovine serum (Biowhittaker) and cells (200000 per well) in the same medium, and concanavalin-A stimulator (Sigma 2002-2003 cat. No C5275) at a final concentration of […] were added. The positive control, in place of the dilution of compounds, consisted of RPMI medium with 10% foetal bovine serum and concanavalin-A in the same concentration of. Cells were incubated for 72 hours at 37° C., 95% humidity and in an atmosphere with 5% CO2. Until determination of cytokines, the cells were frozen at −70° C.
Cytokines interleukin 4, interleukin 5 and interferon γ were determined by the specific ELISA method, according to manufacturer's recommendations (R&D).
Inhibition (as percentage) was calculated using the following formula:
% inh=(1−[concentration of cytokines in sample]/[concentration of cytokines in positive control])*100

The next series relates to Sprague-Dawley rats. The series is described as follows: Subcutaneous sponge implantation model. As to conditions: seven days after implantation; for thymus weight: vs vehicle.
Setting [4] is: 4 mg/kg i.n., vs positive control.

Description for Male Balb/C mice: Male Balb/C mice with a body weight of 20-25 g were randomly divided into groups, and sensitised by an i.p. injection of ovalbumin (OVA, Sigma, St. Louis, Mo. USA) on day zero and day fourteen. On the twentieth day, the mice were subjected to a challenge test by i.n. (intranasal) application of OVA (positive control or test groups) or PBS (negative control). 48 hours after i.n. application of OVA, the animals were anaesthetized and the lungs were rinsed with 1 mL of PBS. The cells were separated on Cytospin 3 cytocentrifuge (Shandon). The cells were stained in Diff-Quick (Dade) and the percentage of eosinophils was determined by differential counting of at least 100 cells.
Beclomethasone (Pliva d.d.) were used as a standard substances, with positive and negative control. The compounds were administered daily i.n. or i.p. in different doses 2 days before the challenge test and up to the completion of the test.
Corticosterone levels were determined in plasma from each animal using a kit for determination of corticosterone (R&D systems).

Turning to `CCC(=O)OCC(=O)[C@@]1(OC(=O)CC)[C@@H](C)C[C@H]2[C@@H]3CCC4=CC(=O)C=C[C@]4(C)[C@@]3(Cl)[C@@H](O)C[C@@]21C` [Beclometbasone dipropionate, beclomethasone dipropionate, reference compound], in the series on Male Balb/cJ mice (2 mg/kg i.n.), the “concentration of IL-6 in BALF” value is given as “non-significantly decreased”, the “concentration of TNF-α in BALF” value was “non-significantly decreased” and the “neutrophils in BALF” value is listed as “non-significantly decreased”.
Take `CC[C@H]1OC(=O)[C@H](C)[C@@H](O)[C@H](C)[C@@H](O)[C@](C)(O)C[C@@H](C)CN(CCCNCCC(=O)O[C@]2(C(=O)OC)[C@H](C)CC3C4CCC5=CC(=O)C=C[C@]5(C)[C@@]4(F)[C@@H](O)C[C@@]32C)[C@H](C)[C@@H](O)[C@]1(C)O` (stereo partly drawn) [Compound 7]: in series [1], the IC50 turned out to be 464 nM and the “inhibition of T-cell hybridoma 13 proliferation” value is recorded as “exhibit inhibition”. Further, the “affinity for the glucocorticoid receptor (displacement of radioactive dexamethasone)” value in series [2] is given as “have affinity for the glucocorticoid receptor”.
As to `CC[C@H]1OC(=O)[C@H](C)[C@@H](O)[C@H](C)[C@@H](O)[C@](C)(O)C[C@@H](C)CN(CCCNCCC(=O)O[C@]2(C(=O)OC)[C@H](C)CC3C4C[C@H](F)C5=CC(=O)C=C[C@]5(C)C4[C@@H](O)C[C@@]32C)[C@H](C)[C@@H](O)[C@]1(C)O` (stereo partly drawn) [Compound 9], in series [1], the IC50 came to 303 nM and the “inhibition of T-cell hybridoma 13 proliferation” value is recorded as “exhibit inhibition”.
Take `CC[C@H]1OC(=O)[C@H](C)[C@@H](O)[C@H](C)[C@@H](O)[C@](C)(O)C[C@@H](C)CN(CCCNCCC(=O)O[C@]2(C(=O)OC)[C@H](C)CC3C4C[C@H](F)C5=CC(=O)C=C[C@]5(C)[C@@]4(F)[C@@H](O)C[C@@]32C)[C@H](C)[C@@H](O)[C@]1(C)O` (stereo partly drawn) [Compound 10 phosphate salt]: in the series with Male Balb/cJ mice (setting [4]), the “concentration of IL-6 in BALF” value is listed as “statistically significantly decreased”, the “concentration of TNF-α in BALF” value is reported as “statistically significantly decreased” and the “neutrophils in BALF” value is recorded as “statistically significantly decreased”.
`CC[C@H]1OC(=O)[C@H](C)[C@@H](O)[C@H](C)[C@@H](O)[C@](C)(O)C[C@@H](C)CN(CCCNCCC(=O)O[C@]2(C(=O)OC)[C@H](C)CC3C4C[C@H](F)C5=CC(=O)C=C[C@]5(C)[C@@]4(F)[C@@H](O)C[C@@]32C)[C@H](C)[C@@H](O)[C@]1(C)O` (stereo partly drawn) [Compound 10]: the “number of eosinophils in the lung rinse with respect to positive control” value with Male Balb/C mice (t-test, p<0.05) is “statistically significantly reduced”. Moreover, in series [1], half-maximal inhibition (IC50) required 41.7 nM and the “inhibition of T-cell hybridoma 13 proliferation” value is given as “exhibit inhibition”. For the same compound, the “reduction of ear edema” value in the series with Male Sprague-Dawley rats (2 mg/ear) was 51.58%. For the same compound, the “reduction of ear edema” value with Male Sprague-Dawley rats (5 mg/ear) stood at 85.53%. Moreover, the “inhibition of the production of cytokines” value in series [3] is “inhibits the production of cytokines”. Also, the “affinity for the glucocorticoid receptor (displacement of radioactive dexamethasone)” value in series [2] is recorded as “have affinity for the glucocorticoid receptor”. Further, the granulation tissue formation result with Sprague-Dawley rats (10 mg/sponge, vs non-treated and vehicle sponges) was “significantly reduced”.
As for `CC[C@H]1OC(=O)[C@H](C)[C@@H](O)[C@H](C)[C@@H](O)[C@](C)(O)C[C@@H](C)CN(CCCNCCC(=O)O[C@]2(C(=O)OC)CCC3C4C[C@H](C)C5=CC(=O)C=C[C@]5(C)C4[C@@H](O)C[C@@]32C)[C@H](C)[C@@H](O)[C@]1(C)O` (stereo partly drawn) [Compound 13], in series [1], the IC50 worked out at 287 nM.
For the compound `CC[C@H]1OC(=O)[C@H](C)[C@@H](O)[C@H](C)[C@@H](O)[C@](C)(O)C[C@@H](C)CN(CCCNC(=O)CCCCCCCCCCCNCCC(=O)O[C@]2(C(=O)OC)[C@H](C)CC3C4C[C@H](F)C5=CC(=O)C=C[C@]5(C)[C@@]4(F)[C@@H](O)C[C@@]32C)[C@H](C)[C@@H](O)[C@]1(C)O` (stereo partly drawn) [Compound 14], 455 nM corresponded to half-maximal inhibition in series [1] (IC50).
On the same count and under the same terms, the result for `CCOC(=O)[C@@]1(OC(=O)CCNCCCN2C[C@H](C)C[C@@](C)(O)[C@H](O)[C@@H](C)[C@H](O)[C@@H](C)C(=O)O[C@H](CC)[C@@](C)(O)[C@H](O)[C@H]2C)[C@H](C)CC2C3C[C@H](F)C4=CC(=O)C=C[C@]4(C)[C@@]3(F)[C@@H](O)C[C@@]21C` (stereo partly drawn) [Compound 16] reads 112 nM.
`CC[C@H]1OC(=O)[C@H](C)[C@@H](O)[C@H](C)[C@@H](O)[C@](C)(O)C[C@@H](C)CN(CCCCNCCC(=O)O[C@]2(C(=O)OC)[C@H](C)CC3C4C[C@H](F)C5=CC(=O)C=C[C@]5(C)[C@@]4(F)[C@@H](O)C[C@@]32C)[C@H](C)[C@@H](O)[C@]1(C)O` (stereo partly drawn) [Compound 17]: the IC50 in series [1] is 41.6 nM. In the series on Male Sprague-Dawley rats (5 mg/ear), the “reduction of ear edema” value was found to be 76.59%.
With `CC[C@H]1OC(=O)[C@H](C)[C@@H](O)[C@H](C)[C@@H](O)[C@](C)(O)C[C@@H](C)CN(CCCCCCNCCC(=O)O[C@]2(C(=O)OC)[C@H](C)CC3C4C[C@H](F)C5=CC(=O)C=C[C@]5(C)[C@@]4(F)[C@@H](O)C[C@@]32C)[C@H](C)[C@@H](O)[C@]1(C)O` (stereo partly drawn) [Compound 18], the IC50 in series [1] came to 474 nM.
`C[C@@H]1C[C@H]2[C@@H]3CCC4=CC(=O)C=C[C@]4(C)[C@@]3(F)[C@@H](O)C[C@]2(C)[C@@]1(O)C(=O)CO` [Dexamethasone, reference compound]: the “reduction of ear edema” value in the series on Male Sprague-Dawley rats (1 mg/ear) came to 85.77%.
On to `C[C@H]1C[C@H]2[C@@H]3CCC4=CC(=O)C=C[C@]4(C)[C@@]3(Cl)[C@@H](O)C[C@]2(C)[C@@]1(O)C(=O)CO` [beclomethasone], for which, in the series on Male Balb/C mice (1 mg/kg intranasally, mice), the plasma corticosterone levels result is listed as “significantly suppressed”. Besides, the thymus weight result with Sprague-Dawley rats (2 mg/sponge) and in the series on Sprague-Dawley rats (10 mg/sponge) was “significantly decreased” in each case. Further, in the series on Sprague-Dawley rats (10 mg/sponge, vs vehicle control), the plasma corticosterone concentration result is on record as “significantly decreased”.
